Like-named read-outs stand apart in the source and are kept apart here.
What was measured:
[1] = tested on: IP implanted D16 melanoma; settings: cited from earlier work
[2] = Solubilization of paclitaxel in the carrier and appearance of the undiluted formulation; assay type: physicochemical
Protocol: 4.040 g of Vitamin E-TPGS (Eastman Chemical Co., Kingsport, Tenn.) was chipped in and weighed into a 20 ml scintillation vial. 0.514 g of dimethylisosorbide (“DMI”; ARLASOLVE® DMI, ICI Surfactants; Wilmington, Del.) was added to the vial followed by heating to melt the Vitamin E-TPGS/DMI mixture. […] The solution began to clarify and dissolution progressed.
Each formulation was prepared in a 20 ml scintillation vial. The vial was initially tared. CREMOPHOR® EL/citric acid blend (10 g CREMOPHOR® EL, 0.020 g citric acid) was weighed into each of eight (8) tared vials. The weight was recorded. Each vial was subsequently tared and the appropriate weight of dimethylisosorbide (DMI) was added. An additional five (5) vials were also prepared without containing the CREMOPHOR® EL/citric acid blend. […] All vials were individually tared and the appropriate weight of Vitamin E-TPGS was added. At this point, all vials were placed in a 40° C. incubator to liquefy the Vitamin E-TPGS within each sample. After the solutions had liquefied, two samples were removed at a time and placed on a stir/hotplate. One-half inch egg shaped stir bars were added to each scintillation vial.
Large clumps were broken apart easily with a stainless steel spatula. […] This same procedure was repeated for each of the samples.
1.016 g of ethyl alcohol was transferred to a 20 ml scintillation vial containing a stir bar. […]

[3] = Oral feasibility PK in dogs (paclitaxel capsules, plasma HPLC); assay type: in vivo; settings: for Cmax / Tmax: dog, plasma; for Tmax: read-out: tmax (time of maximum concentration observed)
Protocol: The formulation was as follows: […]
and was hand filled into single 0 hard gelatin capsules to a dose of approximately 34 mg/capsule.
Capsules were inserted into the esophagus and followed with a brief squirt of water and the animals held until swallowing was observed.

[4] = tested on: human X-1 mammary tumor xenograft; settings: cited from earlier work
[5] = male beagle FJF-8, oral, 3 capsules Vitamin E TPGS/DMI formulation, 7.66 mg/kg
[6] = male beagle IOF-8, oral, 3 capsules Vitamin E TPGS/DMI formulation, 6.88 mg/kg

dissolution of paclitaxel in Methoxy PEG 550 alone ([2]; 0.050 g in 0.450 g (Table 3)): eventually dissolved
dissolution of paclitaxel in Methoxy PEG 350 alone ([2]; 0.050 g in 0.450 g and 0.100 g in 0.900 g (Table 3)): quickly dissolved
Cmax [3, 5]: 108 ng/mL
Tmax [3, 5]: 1 h
Cmax [3, 6]: 92 ng/mL
Tmax [3, 6]: 0.5 h
tlast (time of last nonzero concentration observed) [3, 5]: 8 h
tlast (time of last nonzero concentration observed) [3, 6]: 6 h
tlast (time of last nonzero concentration observed) ([3]; male beagle OEF-8, oral, 1 capsule Vitamin E TPGS/DMI formulation, 3.27 mg/kg): 8 h
tlast (time of last nonzero concentration observed) ([3]; male beagle OLF-8, oral, 3 capsules Vitamin E TPGS/DMI formulation, 11.14 mg/kg): 8 h
tlast (time of last nonzero concentration observed) ([3]; male beagle PXF-8, oral, 1 capsule Vitamin E TPGS/DMI formulation, 3.23 mg/kg): 12 h
Cmax ([3]; male, beagle, po, 3.23 mg/kg): 17 ng/mL
Tmax ([3]; male, beagle, po, 3.23 mg/kg): 1 h
Cmax ([3]; male, beagle, po, 3.27 mg/kg): 97 ng/mL
Tmax ([3]; male, beagle, po, 3.27 mg/kg): 1 h
Cmax ([3]; male, beagle, po, 11.14 mg/kg): 63 ng/mL
Tmax ([3]; male, beagle, po, 11.14 mg/kg): 1 h
SMILES: CC(=O)O[C@H]1C(=O)[C@@]2(C)[C@H]([C@H](OC(=O)c3ccccc3)[C@]3(O)C[C@H](OC(=O)[C@H](O)[C@@H](NC(=O)c4ccccc4)c4ccccc4)C(C)=C1C3(C)C)[C@]1(OC(C)=O)CO[C@@H]1C[C@@H]2O [paclitaxel]
cytotoxic activity [1]: good cytotoxic activity
detectable plasma levels of intact drug following dosing ([3]; six male beagles, oral capsules, 3 to 11 mg/kg, plasma to 48 hours postdose): Five of the six animals had detectable levels of intact drug
cytotoxic activity [4]: good cytotoxic activity

— patent US20010029264A1, “Novel methods and compositions for delivery of taxanes” (priority 1998, published 2001)
